From patent US9206229B2, “Bortezomib esters and formulations thereof” (CHEMI S.P.A., priority 2012, dated 2015)
Like-named read-outs stand apart in the source and are kept apart here.

Key:
[1] = Stability tests of (5+5) bis bortezomib tartrate III in solid form (HPLC purity); format: physicochemical
Method: (5+5) Bis-bortezomib tartrate III, prepared as described in example 2, and the solid formulations containing (5+5) bis-bortezomib tartrate III, prepared as described in examples 3 and 4, were put into glass vials with screw plug and hermetic closure and undergone stability tests under the following conditions: […]
temperature 25° C. and 60% relative humidity temperature 40° C. and 75% relative humidity
The HPLC method used for the purity analysis was the following:
• UV Detector: SPD 10AVP • auto-sampler: SIL-ADVP Wavelength: 270 nm Column: Biobasic-18-Peek Bio-inert • length: 250 mm • I.D.: 2.1 mm • Particle size: 5 μm • (thermo scientific Cat.N.72105-252168 or equivalent) Injection: 3 μl Column temperature: room Sampler temperature: room Flow rate: 0.3 ml/min Mobile phase: eluent A: 95% gradient • Eluent B: 5% Analysis time: 60 minutes Eluent A: 0.1% v/v formic acid in water for HPLC Eluent B: 0.1% v/v formic acid in acetonitrile for gradient Diluent: acetonitrile:water for HPLC=80:20 Blank: diluent Gradient program:
Weigh about 50 mg sample and transfer the substance into a 100 ml flask. Dissolve and bring to volume with diluent. Sonicate up to complete dissolution (analyte content about 0.5 mg/ml).
Calculate the percentage of each known and unknown impurity as percentage area by using the following formula (peaks of the blank and peaks with area <0.05% to be ignored).
[formula] Axc: peak area of the impurity in the sample Atot: total area of the peaks of the chromatogram Purity(A%)=100−Σ1Imp (i) The peak corresponding to bortezomib is eluted at 28 minutes±2.
In the following tables the data obtained from the stability tests after two and four weeks are reported.

[2] = Stability tests of powders stored at 40° C. for months (examples 12, 14, 17), HPLC purity; format: physicochemical; conditions: powder
Method: Samples of the powder obtained in example 11 were stored in glass vials with screw cap and hermetic closure and undergone stability tests at 40° C. and 75% relative humidity. Their purity was checked during the time. In the following table the purity data of the samples under stability test obtained by using the HPLC method described in example 9 are reported.
Samples of the powder obtained in example 13 were stored in glass vials with screw cap and hermetic closure and undergone stability tests at 40° C. and 75% relative humidity. In the following table the purity data obtained by using the HPLC method described in example 9 are reported.
In the following table the data of the HPLC purity analysis of the powder at time 0 and after 1 month, 2 months and 3 months of storage in glass vials with screw plug and hermetic closure at 40° C. are reported.

[3] = cited from earlier work
[4] = 2 weeks 25° C., 60% relative humidity
[5] = 2 weeks 40° C., 75% relative humidity
[6] = 2 months 40° C. (75% relative humidity stated in examples 12, 14)
[7] = 3 months 40° C. (75% relative humidity stated in examples 12, 14)
[8] = 1 month 40° C. (75% relative humidity stated in examples 12, 14)

HPLC peak area, relative retention time 0.87 (retention time 23.58 min) [2, 6]	HPLC peak area, relative retention time 1.037 (retention time 28.00 min) [2, 6]	HPLC peak area, relative retention time 1.07 (retention time 28.77 min) [2, 6]	HPLC purity, peak at relative retention time 1.00 (retention time 27.00 min) [2, 6]	HPLC peak area, relative retention time 0.87 (retention time 23.58 min) [2, 7]	HPLC peak area, relative retention time 0.95 (retention time 25.78 min) [2, 7]	HPLC peak area, relative retention time 1.037 (retention time 28.00 min) [2, 7]	HPLC purity, peak at relative retention time 1.00 (retention time 27.00 min) [2, 7]	HPLC peak area, relative retention time 1.037 (retention time 28.00 min) ([2]; t0)	HPLC purity, peak at relative retention time 1.00 (retention time 27.00 min) ([2]; t0)	SMILES	also measured
–	–	–	–	–	–	–	–	–	–	CC(C)C[C@H](NC(=O)C(Cc1ccccc1)NC(=O)c1cnccn1)B1OC(=O)C(C2OB([C@H](CC(C)C)NC(=O)C(Cc3ccccc3)NC(=O)c3cnccn3)OC2=O)O1 (stereo partly drawn) [Example 2, (5+5) Bis-Bortezomib L-Tartrate III]	HPLC peak area, relative retention time 0.91 (retention time 24.57 min) [1, 4]: 0.02 A%; HPLC peak area, relative retention time 0.95 (retention time 25.78 min) [1, 4]: 0.02 A%; HPLC peak area, relative retention time 1.07 (retention time 28.77 min) [1, 4]: 0.01 A%; HPLC purity, peak at relative retention time 1.00 (retention time 27.00 min) [1, 4]: 99.94 A%; HPLC peak area, relative retention time 0.95 (retention time 25.78 min) [1, 5]: 0.18 A%; HPLC peak area, relative retention time 1.07 (retention time 28.77 min) [1, 5]: 0.01 A%; HPLC purity, peak at relative retention time 1.00 (retention time 27.00 min) [1, 5]: 99.82 A%; HPLC peak area, relative retention time 0.91 (retention time 24.57 min) ([1]; t0): 0.02 A%; HPLC peak area, relative retention time 0.95 (retention time 25.78 min) ([1]; t0): 0.07 A%; HPLC peak area, relative retention time 1.07 (retention time 28.77 min) ([1]; t0): 0.01 A%; HPLC purity, peak at relative retention time 1.00 (retention time 27.00 min) ([1]; t0): 99.90 A%
0.15 A%	0.02 A%	0.04 A%	99.67 A%	0.66 A%	0.07 A%	0.38 A%	98.72 A%	0.01 A%	99.99 A%	CC(C)C[C@H](NC(=O)C(Cc1ccccc1)NC(=O)c1cnccn1)B1OC(=O)C(C2OB([C@H](CC(C)C)NC(=O)C(Cc3ccccc3)NC(=O)c3cnccn3)OC2=O)O1 (stereo partly drawn) [Example 11, (5+5) Bis Bortezomib L-Tartrate III]	HPLC peak area, relative retention time 1.07 (retention time 28.77 min) [2, 7]: 0.18 A%
0.61 A%	0.34 A%	0.13 A%	98.85 A%	0.07 A%	0.04 A%	0.02 A%	99.85 A%	0.02 A%	99.94 A%	CC(C)C[C@H](NC(=O)[C@H](Cc1ccccc1)NC(=O)c1cnccn1)B1OC(=O)[C@@H]([C@H]2OB([C@H](CC(C)C)NC(=O)[C@H](Cc3ccccc3)NC(=O)c3cnccn3)OC2=O)O1 [Example 13, (5+5) Bis Bortezomib L-Tartrate III]	HPLC peak area, relative retention time 0.87 (retention time 23.58 min) [2, 8]: 0.05 A%; HPLC peak area, relative retention time 1.037 (retention time 28.00 min) [2, 8]: 0.02 A%; HPLC purity, peak at relative retention time 1.00 (retention time 27.00 min) [2, 8]: 99.93 A%; HPLC peak area, relative retention time 0.95 (retention time 25.78 min) [2, 6]: 0.07 A%; HPLC peak area, relative retention time 0.87 (retention time 23.58 min) ([2]; t0): 0.02 A%
–	–	–	–	–	–	–	–	–	–	CC(C)C[C@H](NC(=O)[C@H](Cc1ccccc1)NC(=O)c1cnccn1)B(O)O [bortezomib]	time for which stable on storage ([3]; stored at 2-8° C.): 3-6 months; HPLC purity ([3]; stored at −20° C. for more than 2 years): > 97%; time for which stable on storage ([3]; stored at −20° C.): more than 2 years
